Patent US20140011749A1, “KETOGENIC DIET COMPOSITION FOR THE TREATMENT OF CHEMO THERAPY AND/OR RADIATION THERAPY PATIENTS” (priority 2011, published 2014)

Tested on: GL261-luc cells
Assay: GL261-luc intracranial malignant glioma mouse model: survival and bioluminescence
Format: in vivo, albino C57BL/6 mice
Details: TMZ (5×50 mg/kg), animals maintained on SD
Experimental: GL261-luc cells expressing luciferase were stereotactically implanted into the right frontal lobe of immune-competent albino C57BL/6 mice (NCI, Frederick, Md.). Following intracranial implantation, animals were fed standard rodent chow (SD) and were randomized to treatment groups on day 3 (SD vs KetoCal® with and without radiation or TMZ) based on bioluminescent signal (IVIS® Spectrum in vivo imaging system, Caliper Life Sciences, Hopkinton, Mass.). […] Mice were maintained on a 12 hour light/dark cycle and KetoCal® or SD was available ad libitum.

Cn1nnc2c(C(N)=O)ncn2c1=O [TMZ, temozolomide]
median survival: 28 days
